According to ChEMBL document CHEMBL2385010, “Discovery of aryl ureas and aryl amides as potent and selective histamine H3 receptor antagonists for the treatment of obesity (part I)” (Bioorg Med Chem Lett, 2013):
Values after ≈ are worked out from the molar mass of the structure shown.

How the values were obtained:
Histamine H3 receptor [1] = target: T1, Histamine H3 receptor (Homo sapiens, UniProt Q9Y5N1); assay: Antagonist activity at human histamine H3 receptor in human T-REx-293 cells assessed as inhibition of basal GTPgammaS binding at 10 uM after 90 mins by scintillation counting analysis relative to control; assay type: functional, cell-based; settings: HEK293
[2] = target: Histamine H1 receptor (Homo sapiens) (UniProt P35367); assay: Antagonist activity at human histamine H1 receptor assessed as inhibition of calcium mobilization at 10 uM by FLIPR assay relative to control; assay type: functional
[3] = target: Melanin-concentrating hormone receptor 1 (Homo sapiens) (UniProt Q99705); assay: Antagonist activity at human MCH1R assessed as inhibition of calcium mobilization at 10 uM by FLIPR assay relative to control; assay type: functional
Histamine H3 receptor [4] = target: T1, Histamine H3 receptor; assay: Antagonist activity at human histamine H3 receptor expressed in HEK293 cells assessed as inhibition of calcium mobilization by FLIPR assay; assay type: functional, cell-based
[5] = target: Histamine H2 receptor (Homo sapiens) (UniProt P25021); assay: Antagonist activity at human histamine H2 receptor assessed as inhibition of calcium mobilization at 10 uM by FLIPR assay relative to control; assay type: functional
Histamine receptor H3 = Histamine receptor H3 (Macaca mulatta, UniProt Q865E1); assay: Displacement of [3H]N-alpha-methylhistamine from cloned rhesus monkey histamine H3 receptor transfected in CHO cells after 1 hr by scintillation counting analysis; assay type: cell-based
Histamine H3 receptor [6] = target: T1, Histamine H3 receptor; assay: Displacement of [3H]N-alpha-methylhistamine from cloned human histamine H3 receptor transfected in CHO cells after 1 hr by scintillation counting analysis; assay type: cell-based
Histamine H3 receptor [7] = target: Histamine H3 receptor (Rattus norvegicus, UniProt Q9QYN8); assay: Displacement of [3H]N-alpha-methylhistamine from cloned rat histamine H3 receptor transfected in CHO cells after 1 hr by scintillation counting analysis; assay type: cell-based
[8] = Solubility of the compound; assay type: physicochemical
[9] = Drug metabolism in human liver microsomes; assay type: ADME, Microsome; settings: read-out: Drug metabolism
[10] = Drug metabolism in mouse liver microsomes; assay type: ADME, Microsome; settings: read-out: Drug metabolism
[11] = Drug metabolism in rat liver microsomes; assay type: ADME, Microsome; settings: read-out: Drug metabolism
hERG (KCNH2) = hERG (KCNH2) (Homo sapiens, UniProt Q12809); assay: Inhibition of human ERG at 10 uM relative to control
Sequence of hERG (KCNH2) (Q12809 whole entry): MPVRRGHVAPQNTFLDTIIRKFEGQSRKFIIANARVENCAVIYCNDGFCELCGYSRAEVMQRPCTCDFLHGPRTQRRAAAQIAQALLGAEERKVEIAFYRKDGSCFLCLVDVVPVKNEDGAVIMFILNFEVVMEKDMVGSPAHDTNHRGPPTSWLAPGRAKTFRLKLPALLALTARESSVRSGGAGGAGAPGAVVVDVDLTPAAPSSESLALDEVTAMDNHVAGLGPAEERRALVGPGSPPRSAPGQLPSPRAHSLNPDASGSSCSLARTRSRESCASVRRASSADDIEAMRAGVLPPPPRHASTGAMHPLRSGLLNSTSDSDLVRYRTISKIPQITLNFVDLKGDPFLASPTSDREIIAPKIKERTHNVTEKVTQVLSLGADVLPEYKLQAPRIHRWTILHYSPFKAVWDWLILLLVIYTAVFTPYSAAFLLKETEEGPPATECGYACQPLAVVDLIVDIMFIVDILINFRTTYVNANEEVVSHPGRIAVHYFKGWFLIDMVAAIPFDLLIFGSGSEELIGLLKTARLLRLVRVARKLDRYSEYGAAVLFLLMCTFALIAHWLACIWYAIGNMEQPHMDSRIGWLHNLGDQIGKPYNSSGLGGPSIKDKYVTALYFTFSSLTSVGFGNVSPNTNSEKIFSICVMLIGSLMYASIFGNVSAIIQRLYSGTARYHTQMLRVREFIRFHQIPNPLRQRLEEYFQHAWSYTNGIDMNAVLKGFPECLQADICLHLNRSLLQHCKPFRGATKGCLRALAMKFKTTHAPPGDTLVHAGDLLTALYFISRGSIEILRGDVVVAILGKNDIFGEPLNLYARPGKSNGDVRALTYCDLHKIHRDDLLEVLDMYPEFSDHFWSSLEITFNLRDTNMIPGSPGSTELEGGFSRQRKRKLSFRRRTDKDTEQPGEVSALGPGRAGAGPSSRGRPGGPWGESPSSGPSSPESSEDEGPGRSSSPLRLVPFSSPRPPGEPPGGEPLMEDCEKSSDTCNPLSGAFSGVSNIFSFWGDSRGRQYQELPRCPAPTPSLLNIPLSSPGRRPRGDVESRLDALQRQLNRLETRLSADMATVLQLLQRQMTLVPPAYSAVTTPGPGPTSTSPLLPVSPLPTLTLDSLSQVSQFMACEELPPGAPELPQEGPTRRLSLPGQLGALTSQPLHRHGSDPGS

Sequence of Histamine H1 receptor (Homo sapiens) (P35367 whole entry): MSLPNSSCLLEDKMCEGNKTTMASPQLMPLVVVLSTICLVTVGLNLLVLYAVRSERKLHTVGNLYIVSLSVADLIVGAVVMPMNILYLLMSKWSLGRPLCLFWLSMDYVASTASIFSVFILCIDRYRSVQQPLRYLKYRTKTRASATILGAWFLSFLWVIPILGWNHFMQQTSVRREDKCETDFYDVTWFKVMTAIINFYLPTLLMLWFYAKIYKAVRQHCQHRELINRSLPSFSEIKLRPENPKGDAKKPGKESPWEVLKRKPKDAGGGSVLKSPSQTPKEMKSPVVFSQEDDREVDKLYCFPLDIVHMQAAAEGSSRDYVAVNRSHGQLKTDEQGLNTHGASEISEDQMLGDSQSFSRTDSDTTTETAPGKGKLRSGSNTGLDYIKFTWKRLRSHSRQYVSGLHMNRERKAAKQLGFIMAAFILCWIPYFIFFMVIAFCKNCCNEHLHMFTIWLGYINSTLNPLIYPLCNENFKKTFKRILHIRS
Sequence of Histamine receptor H3 (Q865E1 whole entry): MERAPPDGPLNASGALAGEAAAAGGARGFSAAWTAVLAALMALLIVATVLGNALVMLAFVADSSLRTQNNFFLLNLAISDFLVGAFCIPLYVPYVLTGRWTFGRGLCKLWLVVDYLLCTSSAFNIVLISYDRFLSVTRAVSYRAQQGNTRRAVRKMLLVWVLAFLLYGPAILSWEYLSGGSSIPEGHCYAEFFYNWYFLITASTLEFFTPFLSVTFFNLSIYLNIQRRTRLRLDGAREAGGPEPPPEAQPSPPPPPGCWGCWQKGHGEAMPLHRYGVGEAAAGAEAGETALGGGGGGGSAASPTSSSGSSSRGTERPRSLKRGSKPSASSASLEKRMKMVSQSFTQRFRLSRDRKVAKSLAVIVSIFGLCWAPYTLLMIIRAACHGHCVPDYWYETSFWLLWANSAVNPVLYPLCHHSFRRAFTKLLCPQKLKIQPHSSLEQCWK
T1 sequence (Q9Y5N1 whole entry): as the sequence (Q865E1 whole entry) above, with N148D, G240A, A282V, T289A, A290T, A300V, Q442H counted along it
Sequence of Histamine H3 receptor (Rattus norvegicus, UniProt Q9QYN8) (Q9QYN8 whole entry): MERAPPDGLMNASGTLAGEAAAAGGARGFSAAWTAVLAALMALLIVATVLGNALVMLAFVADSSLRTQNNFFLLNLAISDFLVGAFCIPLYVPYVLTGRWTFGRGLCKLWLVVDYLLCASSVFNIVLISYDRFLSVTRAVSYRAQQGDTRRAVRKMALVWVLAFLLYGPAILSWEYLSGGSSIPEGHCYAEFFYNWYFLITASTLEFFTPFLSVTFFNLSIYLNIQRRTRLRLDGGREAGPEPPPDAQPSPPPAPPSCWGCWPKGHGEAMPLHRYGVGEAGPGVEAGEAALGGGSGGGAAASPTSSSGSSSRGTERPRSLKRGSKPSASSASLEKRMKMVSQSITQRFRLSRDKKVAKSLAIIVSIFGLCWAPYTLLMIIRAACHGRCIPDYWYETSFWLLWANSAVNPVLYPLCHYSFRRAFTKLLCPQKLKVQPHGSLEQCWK
Sequence of Histamine H2 receptor (Homo sapiens) (P25021 whole entry): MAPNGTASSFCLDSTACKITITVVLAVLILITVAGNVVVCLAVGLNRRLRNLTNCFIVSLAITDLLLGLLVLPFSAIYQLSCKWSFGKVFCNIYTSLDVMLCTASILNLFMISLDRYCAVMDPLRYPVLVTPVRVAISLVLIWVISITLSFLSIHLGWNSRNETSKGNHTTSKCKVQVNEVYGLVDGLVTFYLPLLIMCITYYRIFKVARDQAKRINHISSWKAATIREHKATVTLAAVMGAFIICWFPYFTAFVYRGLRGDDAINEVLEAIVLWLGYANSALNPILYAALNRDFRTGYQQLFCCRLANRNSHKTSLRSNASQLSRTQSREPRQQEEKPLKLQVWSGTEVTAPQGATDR
Sequence of Melanin-concentrating hormone receptor 1 (Homo sapiens) (Q99705 whole entry): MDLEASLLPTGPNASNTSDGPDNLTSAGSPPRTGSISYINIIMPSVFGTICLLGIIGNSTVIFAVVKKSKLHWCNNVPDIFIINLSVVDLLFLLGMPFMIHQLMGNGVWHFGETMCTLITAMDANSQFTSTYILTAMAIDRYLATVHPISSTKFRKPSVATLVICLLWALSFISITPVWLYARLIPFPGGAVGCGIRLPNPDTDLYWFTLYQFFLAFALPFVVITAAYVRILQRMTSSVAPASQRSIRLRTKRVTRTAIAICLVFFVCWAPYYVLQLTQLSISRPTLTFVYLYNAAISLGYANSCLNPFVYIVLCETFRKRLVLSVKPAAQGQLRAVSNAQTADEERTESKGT

SMILES | inhibition (Histamine H3 receptor [1]) [%] | inhibition [2] [%] | inhibition [3] [%] | IC50 (Histamine H3 receptor [4]) [nM] | inhibition [5] [%] | other results
O=C(Nc1ccc(Cl)cc1)Nc1ccc(OCCCN2CCCCC2)cc1 | 119 | – | – | 0.7 | – | –
CN(C)CCOc1ccc(NC(=O)Nc2ccc(F)cc2F)cc1 | 102 | – | – | 149 | – | –
Cc1cc(N2CCC(N3CCCC3C)C2)ccc1NC(=O)NC1CCCCC1 (configuration not stated) | 110 | < 40 | < 40 | 0.2 | < 40 | –
Cc1c(Cl)cc(NC(=O)Nc2ccc(OCCCN3CCCCC3)cc2)cc1Cl | 133 | – | – | 0.2 | – | Ki (Histamine receptor H3): 18.2 nM; solubility [8]: 6 µg/mL (≈ 13.7 µM); Ki (Histamine H3 receptor [6]): 112 nM; metabolised [9]: 10%; metabolised [10]: 34%; Ki (Histamine H3 receptor [7]): 135 nM; metabolised [11]: 36%
Cc1cc(NC(=O)NCc2cccs2)ccc1N1CCC(N2CCCC2C)C1 (configuration not stated) | 125 | < 40 | < 40 | 0.2 | < 40 | –
Cc1cc(NC(=O)Nc2ccc(Oc3ccccc3)cc2)ccc1N1CCC(N2CCCC2C)C1 (configuration not stated) | 126 | < 40 | < 40 | 0.6 | < 40 | Ki (Histamine receptor H3): 115 nM
O=C(Nc1ccc(Cl)cc1)Nc1ccc(OCCN2CCCCC2)cc1 | 105 | – | – | 27.5 | – | –
Cc1cccc(NC(=O)Nc2ccc(OCCN(C)C)cc2)c1C | 94 | – | – | 73.1 | – | –
Cc1cc(NC(=O)NC2CCCCC2)ccc1N1CCC(N2CCCC2C)C1 (configuration not stated) | 130 | < 40 | < 40 | 0.2 | < 40 | –
CC1CCCN1C1CCN(c2ccc(NC(=O)N3CCN(C)CC3)cc2)C1 (configuration not stated) | 132 | < 40 | < 40 | 0.2 | < 40 | –
O=C(Nc1ccc(OCCN2CCCCC2)cc1)Nc1ccc(F)cc1F | 115 | – | – | 40.5 | – | –
CC(=O)N(C)C1CCN(C(=O)Nc2ccc(N3CCC(N4CCCC4C)C3)c(C)c2)C1 (configuration not stated) | 118 | < 40 | < 40 | 1.1 | < 40 | –
CN(C)CCc1ccc(NC(=O)Nc2ccc(CCN(C)C)cc2)cc1 | 94.7 | – | – | 6.5 | – | –
O=C(Nc1ccc(OCCCN2CCCCC2)cc1)Nc1cc(Cl)cc(Cl)c1 | 125 | < 40 | < 40 | 0.5 | < 40 | Ki (Histamine receptor H3): 3.4 nM
CCN(CC)CCCOc1ccc(NC(=O)Nc2ccc(F)cc2F)cc1 | 124 | – | – | 7.9 | – | –
CC1CCCN1C1CCN(c2ccc(NC(=O)N3CCCCC3)cc2)C1 (configuration not stated) | 108 | < 40 | < 40 | 0.3 | < 40 | –
CC1CCCN1C1CCN(c2ccc(NC(=O)NCc3cccs3)cc2)C1 (configuration not stated) | 129 | < 40 | < 40 | 0.1 | < 40 | Ki (Histamine receptor H3): 1.9 nM
CC1CCCN1C1CCN(c2ccc(NC(=O)N3CCN(c4ccccc4)CC3)cc2)C1 (configuration not stated) | 122 | < 40 | < 40 | 0.4 | < 40 | –
Cc1cc(NC(=O)NCc2cc(Cl)cc(Cl)c2)ccc1N1CCC(N2CCCC2C)C1 (configuration not stated) | 130 | < 40 | < 40 | 1.1 | < 40 | –
CCN(CC)CCOc1ccc(NC(=S)Nc2ccc(OCC(C)C)cc2)cc1 | 129 | – | – | 0.6 | – | Ki (Histamine receptor H3): 15.7 nM; Ki (Histamine H3 receptor [6]): 16.8 nM; Ki (Histamine H3 receptor [7]): 39.9 nM

Second part, led by results:

inhibition (Histamine H3 receptor [1]) [%] | inhibition [2] [%] | inhibition [3] [%] | IC50 (Histamine H3 receptor [4]) [nM] | inhibition [5] [%] | SMILES | other results
118 | < 40 | < 40 | 1.1 | < 40 | Cc1cc(NC(=O)N2CCN(C)CC2)ccc1N1CCC(N2CCCC2C)C1 (configuration not stated) | –
120 | < 40 | < 40 | 0.8 | < 40 | Cc1cc(N2CCC(N3CCCC3C)C2)ccc1NC(=O)N1CCN(C)CC1 (configuration not stated) | –
115 | < 40 | < 40 | 2.3 | < 40 | CC(=O)N1CCN(C(=O)Nc2ccc(N3CCC(N4CCCC4C)C3)c(C)c2)CC1 (configuration not stated) | –
107 | – | – | 9.1 | – | CCOc1ccc(C)cc1NC(=O)Nc1ccc(OCCN(CC)CC)cc1 | –
144 | < 40 | < 40 | 0.2 | < 40 | CC1CCCN1C1CCN(c2ccc(NC(=O)NCc3cc(Cl)cc(Cl)c3)cc2)C1 (configuration not stated) | Ki (Histamine receptor H3): 7.1 nM
117 | – | – | 111 | – | CCN(CC)CCOc1ccc(NC(=O)Nc2ccc(F)cc2F)cc1 | –
128 | – | – | 0.5 | – | O=C(Nc1ccc(OCCCN2CCCCC2)cc1)Nc1ccc(F)cc1F | Ki (Histamine receptor H3): 3.4 nM; Ki (Histamine H3 receptor [6]): 52 nM; Ki (Histamine H3 receptor [7]): 33 nM
118 | – | – | 39.1 | – | CCN(CC)CCOc1ccc(NC(=O)Nc2ccc(Cl)cc2Cl)cc1 | –
109 | < 40 | < 40 | 1.1 | < 40 | CC(=O)N(C)C1CCN(C(=O)Nc2ccc(N3CCC(N4CCCC4C)C3)cc2)C1 (configuration not stated) | –
125 | – | – | 14.7 | – | Cc1cccc(NC(=O)Nc2ccc(OCCCN(C)C)cc2)c1C | –
103 | < 40 | < 40 | 1.2 | < 40 | CC1CCCN1C1CCN(c2ccc(NC(=O)Nc3cc(Cl)cc(Cl)c3)cc2)C1 (configuration not stated) | –
103 | < 40 | < 40 | 3.1 | < 40 | Cc1cc(NC(=O)Nc2cc(Cl)cc(Cl)c2)ccc1N1CCC(N2CCCC2C)C1 (configuration not stated) | –
99 | – | – | 16.4 | – | CN(C)CCOc1ccc(NC(=O)Nc2ccc(Cl)cc2)cc1 | –
116 | – | – | 1 | – | CCN(CC)CCOc1ccc(NC(=O)Nc2c(Cl)cccc2Cl)cc1 | –
126 | < 40 | < 40 | 0.9 | < 40 | Cc1cc(N2CCC(N3CCCC3C)C2)ccc1NC(=O)Nc1cc(Cl)cc(Cl)c1 (configuration not stated) | inhibition at 10 µM (hERG (KCNH2)): 74%; solubility [8]: 10.5 µg/mL (≈ 23.5 µM)
122 | < 40 | < 40 | 0.1 | < 40 | CC1CCCN1C1CCN(c2ccc(NC(=O)NC3CCCCC3)cc2)C1 (configuration not stated) | –
127 | < 40 | < 40 | 0.5 | < 40 | CC(=O)N1CCN(C(=O)Nc2ccc(N3CCC(N4CCCC4C)C3)cc2)CC1 (configuration not stated) | –
113 | < 40 | < 40 | 1.4 | < 40 | CC1CCCN1C1CCN(c2ccc(NC(=O)Nc3ccc(Oc4ccccc4)cc3)cc2)C1 (configuration not stated) | Ki (Histamine receptor H3): 46.8 nM
